Test results reported in the NIST ThermoML archive (doi:10.1021/je900974u).
Numbers after ± are expanded uncertainties.

Experiments:
[1] = Molar enthalpy of transition or fusion; conditions: Crystal; Adiabatic calorimetry
[2] = Crystal
[3] = molar heat capacity at constant pressure; conditions: 101.33 kPa, Liquid, Vacuum adiabatic calorimetry

CCCC[N+](C)(C)C.O=S(=O)([N-]S(=O)(=O)C(F)(F)F)C(F)(F)F [butyltrimethylammonium bis(trifluoromethylsulfonyl)imide]
Conditions | Molar enthalpy of transition or fusion [kcal/mol] | Triple point temperature [K]
[1] | 2.725 ± 0.0239 | –
[2] | – | 290.23 ± 0.2

[3]
Conditions | molar heat capacity at constant pressure [J/K/mol]
278.32 K | 547.5 ± 0.7
280.19 K | 548.7 ± 0.8
282.06 K | 549.7 ± 0.8
283.93 K | 550.8 ± 0.8
285.8 K | 551.9 ± 0.8
287.67 K | 553 ± 0.8
289.54 K | 554.1 ± 0.8
291.42 K | 555.3 ± 0.8
293.29 K | 556.4 ± 0.8
293.87 K | 557 ± 0.8
295.16 K | 557.4 ± 0.8
297.04 K | 558.4 ± 0.8
298 K | 559.2 ± 0.8
298.91 K | 559.5 ± 0.8
300.04 K | 560.4 ± 0.8
302.07 K | 561.1 ± 0.8
304.14 K | 563.3 ± 0.8
306.21 K | 563.9 ± 0.8
308.28 K | 565.4 ± 0.8
310.35 K | 566.5 ± 0.8
312.42 K | 568.2 ± 0.8
314.49 K | 569.1 ± 0.8
316.55 K | 570.3 ± 0.8
318.6 K | 571.4 ± 0.8
320.67 K | 573.2 ± 0.8
322.73 K | 575.1 ± 0.8
324.8 K | 575 ± 0.8
326.86 K | 576.5 ± 0.8
328.92 K | 577.2 ± 0.8
330.98 K | 578.5 ± 0.8
333.04 K | 580.6 ± 0.8
335.09 K | 581.5 ± 0.8
337.15 K | 582.9 ± 0.8
339.2 K | 584.1 ± 0.8
341.26 K | 585.7 ± 0.8
343.31 K | 586.6 ± 0.8
345.36 K | 587.7 ± 0.8
347.41 K | 588.6 ± 0.8
349.46 K | 590.1 ± 0.8
351.49 K | 591.1 ± 0.8
353.54 K | 592.1 ± 0.8
355.59 K | 593.4 ± 0.8
357.65 K | 594.8 ± 0.8
359.7 K | 596 ± 0.8
361.76 K | 597.4 ± 0.8
363.81 K | 598.5 ± 0.8
365.87 K | 599.8 ± 0.8
367.93 K | 600.9 ± 0.8
